Several values for one entry are separate records, joined by “and”; a condition that tells them apart may be missing. Identical values can stand only once. Inconclusive results and toxic doses are left out. The calls were made as follows: active = survival T/C of 150% or more; inactive = T/C below 125% in these data.
System: P388 leukemia ip, CD2F1 mice, survival T/C
Test: NCI In Vivo Anticancer Drug Screen. Data for tumor model P388 Leukemia (intraperitoneal) in CD2F1 (CDF1) mice
Conditions: endpoint: median survival time, higher = longer survival
In short: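 Mice carrying the transplanted tumor received test compound or vehicle. Survival was recorded in each group, and the value is the treated-group measurement divided by that of the vehicle-treated control group.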

[1] = dose: 50.0 mg/kg/injection, schedule: Q01DX005 (ip), vehicle: saline with Tween-80
[2] = dose: 100.0 mg/kg/injection, schedule: Q01DX005 (ip), vehicle: saline with Tween-80
[3] = dose: 200.0 mg/kg/injection, schedule: Q01DX005 (ip), vehicle: saline with Tween-80
[4] = dose: 50.0 mg/kg/injection, schedule: Q01DX005 (ip), vehicle: Klucel (hydroxypropylcellulose) (HPC)
[5] = dose: 100.0 mg/kg/injection, schedule: Q01DX005 (ip), vehicle: Klucel (hydroxypropylcellulose) (HPC)
[6] = dose: 60.0 mg/kg/injection, schedule: Q01DX005 (ip), vehicle: saline with Tween-80
[7] = dose: 120.0 mg/kg/injection, schedule: Q01DX005 (ip), vehicle: saline with Tween-80
[8] = dose: 240.0 mg/kg/injection, schedule: Q01DX005 (ip), vehicle: saline with Tween-80
[9] = dose: 50.0 mg/kg/injection, schedule: Q01DX009 (ip), vehicle: Klucel (hydroxypropylcellulose) (HPC)
[10] = dose: 100.0 mg/kg/injection, schedule: Q01DX009 (ip), vehicle: Klucel (hydroxypropylcellulose) (HPC)
[11] = dose: 60.0 mg/kg/injection, schedule: Q01DX005 (ip), vehicle: Klucel (hydroxypropylcellulose) (HPC)
[12] = dose: 120.0 mg/kg/injection, schedule: Q01DX005 (ip), vehicle: Klucel (hydroxypropylcellulose) (HPC)
[13] = dose: 240.0 mg/kg/injection, schedule: Q01DX005 (ip), vehicle: Klucel (hydroxypropylcellulose) (HPC)
[14] = dose: 200.0 mg/kg/injection, schedule: Q01DX009 (ip), vehicle: Klucel (hydroxypropylcellulose) (HPC)
[15] = dose: 200.0 mg/kg/injection, schedule: Q01DX005 (ip), vehicle: Klucel (hydroxypropylcellulose) (HPC)
[16] = dose: 12.5 mg/kg/injection, schedule: Q01DX005 (ip), vehicle: saline with Tween-80
[17] = dose: 25.0 mg/kg/injection, schedule: Q01DX005 (ip), vehicle: saline with Tween-80
[18] = dose: 50.0 mg/kg/injection, schedule: Q01DX009 (ip), vehicle: saline with Tween-80
[19] = dose: 100.0 mg/kg/injection, schedule: Q01DX009 (ip), vehicle: saline with Tween-80
[20] = dose: 200.0 mg/kg/injection, schedule: Q01DX009 (ip), vehicle: saline with Tween-80

Measured: T/C

CC(C)c1cc(N(C)C)cc(=S)[nH]1
inactive: dose: 50.0 mg/kg/injection, schedule: Q01DX005 (ip), vehicle: saline 104 % of control | dose: 100.0 mg/kg/injection, schedule: Q01DX005 (ip), vehicle: saline 94 % of control | dose: 200.0 mg/kg/injection, schedule: Q01DX005 (ip), vehicle: saline 102 % of control

Cc1cccc(Nc2cc(=O)[nH]c(=O)[nH]2)c1
inactive: dose: 100.0 mg/kg/injection, schedule: Q04DX003 (ip), vehicle: Klucel (hydroxypropylcellulose) (HPC) 110 % of control | dose: 200.0 mg/kg/injection, schedule: Q04DX003 (ip), vehicle: Klucel (hydroxypropylcellulose) (HPC) 98 % of control

CC(=O)Oc1c2c(c(C)c3ccccc13)C(=O)c1cccnc1C2=O
inactive: dose: 100.0 mg/kg/injection, schedule: Q01DX001 (ip), vehicle: saline 98 % of control | dose: 200.0 mg/kg/injection, schedule: Q01DX001 (ip), vehicle: saline 89 % of control | dose: 400.0 mg/kg/injection, schedule: Q01DX001 (ip), vehicle: saline 92 % of control

CC(=O)OCC1OC(n2c(Br)nc3c(=O)[nH]c(N)nc32)C(OC(C)=O)C1OC(C)=O (configuration not stated)
inactive: [1] 102 % of control | [2] 104 % of control | [3] 107 % of control

CSc1cnn(-c2ccccc2)[n+]1[O-]
inactive: [1] 98 % of control | [2] 110 % of control | [3] 94 % of control

CC(C)N1CCN(c2ccc(OCC3COC(Cn4cncn4)(c4ccc(Cl)cc4Cl)O3)cc2)CC1 (configuration not stated)
inactive: [4] 100 % of control | [5] 101 % of control

CN1C(=O)OC2OC(C)(c3ccc(S(=O)(=O)c4ccccc4)cc3)C(=O)CC21 (configuration not stated)
inactive: [6] 100 % of control | [7] 97 % of control | [8] 90 % of control

Nc1nc(N)c2cc(C=O)ccc2n1
inactive: dose: 0.39 mg/kg/injection, schedule: Q01DX009 (ip), vehicle: distilled water + Tween-80 100 % of control | dose: 0.78 mg/kg/injection, schedule: Q01DX009 (ip), vehicle: distilled water + Tween-80 101 % of control | dose: 1.56 mg/kg/injection, schedule: Q01DX009 (ip), vehicle: distilled water + Tween-80 110 % of control | dose: 3.13 mg/kg/injection, schedule: Q01DX009 (ip), vehicle: distilled water + Tween-80 100 % of control | dose: 6.25 mg/kg/injection, schedule: Q01DX009 (ip), vehicle: distilled water + Tween-80 109 % of control

CCOC(=O)CNCc1ccc(Cl)c(Cl)c1
inactive: dose: 6.25 mg/kg/injection, schedule: Q01DX009 (ip), vehicle: Klucel (hydroxypropylcellulose) (HPC) 100 % of control | dose: 12.5 mg/kg/injection, schedule: Q01DX009 (ip), vehicle: Klucel (hydroxypropylcellulose) (HPC) 103 % of control and 97 % of control | dose: 25.0 mg/kg/injection, schedule: Q01DX009 (ip), vehicle: Klucel (hydroxypropylcellulose) (HPC) 100 % of control | [9] 108 % of control and 94 % of control | [10] 104 % of control

O=C(Nc1c(Cl)cccc1Cl)OCc1ccc2c(c1)OCO2
inactive: [11] 92 % of control | [12] 90 % of control | [13] 90 % of control

C=CCNC(=S)Nc1sc2c(c1C(=O)OCC)CCCC2
inactive: [9] 93 % of control | [10] 94 % of control | [14] 89 % of control

N/N=C(\N)c1nn(C2OC(CO)C(O)C2O)c2ncnc(N)c12 (configuration not stated)
inactive: dose: 40.0 mg/kg/injection, schedule: Q01DX005 (ip), vehicle: saline with Tween-80 104 % of control | dose: 80.0 mg/kg/injection, schedule: Q01DX005 (ip), vehicle: saline with Tween-80 104 % of control | dose: 160.0 mg/kg/injection, schedule: Q01DX005 (ip), vehicle: saline with Tween-80 101 % of control | dose: 320.0 mg/kg/injection, schedule: Q01DX005 (ip), vehicle: saline with Tween-80 104 % of control

S=C(S)NCCCn1ccnc1
inactive: [1] 117 % of control | [2] 109 % of control | [3] 110 % of control

CN(C)c1ccc(C2Sc3ccccc3S2)cc1
inactive: dose: 100.0 mg/kg/injection, schedule: Q01DX001 (ip), vehicle: Klucel (hydroxypropylcellulose) (HPC) 97 % of control | dose: 200.0 mg/kg/injection, schedule: Q01DX001 (ip), vehicle: Klucel (hydroxypropylcellulose) (HPC) 95 % of control | dose: 400.0 mg/kg/injection, schedule: Q01DX001 (ip), vehicle: Klucel (hydroxypropylcellulose) (HPC) 97 % of control

C=CC(c1ccccc1)c1cc2c(cc1OCCC)OCO2 (configuration not stated)
inactive: [4] 98 % of control | [5] 96 % of control | [15] 105 % of control

CN1C(=O)n2c(nc3ccccc32)C(N=[N+]=[N-])(N=[N+]=[N-])C1=O (configuration not stated)
inactive: dose: 15.0 mg/kg/injection, schedule: Q01DX005 (ip), vehicle: saline with Tween-80 108 % of control | dose: 30.0 mg/kg/injection, schedule: Q01DX005 (ip), vehicle: saline with Tween-80 101 % of control | [6] 101 % of control and 110 % of control

Nc1ccnc(F)n1
inactive: [11] 100 % of control | [12] 106 % of control | [13] 106 % of control

CCCn1c(C)nc2cc(C)cc(N)c21
inactive: [16] 100 % of control | [17] 89 % of control | [1] 90 % of control and 94 % of control

CC(C)CC(O)C(CC(=O)Nc1ccccc1)S(=O)(=O)c1ccccc1 (configuration not stated)
inactive: [1] 100 % of control | [2] 92 % of control | [3] 86 % of control

CN(C)CC(O)c1ccc2cc(Br)c3ccccc3c2c1 (configuration not stated)
inactive: [16] 97 % of control | [17] 106 % of control | [1] 100 % of control and 97 % of control

Cn1cc/c(=N\N=c2/ccn(C)c3ccccc23)c2ccccc21
inactive: dose: 25.0 mg/kg/injection, schedule: Q04DX002 (ip), vehicle: saline 101 % of control | dose: 50.0 mg/kg/injection, schedule: Q04DX002 (ip), vehicle: saline 104 % of control | dose: 100.0 mg/kg/injection, schedule: Q04DX002 (ip), vehicle: saline 99 % of control and 103 % of control

O=C1Cc2ccccc2C2(CCCCC2)O1
inactive: [4] 100 % of control | [5] 98 % of control | [15] 100 % of control

O=C1CCC2ON=C(Br)C12 (configuration not stated)
inactive: dose: 20.0 mg/kg/injection, schedule: Q01DX005 (ip), vehicle: distilled water + Tween-80 110 % of control | dose: 40.0 mg/kg/injection, schedule: Q01DX005 (ip), vehicle: distilled water + Tween-80 112 % of control | dose: 80.0 mg/kg/injection, schedule: Q01DX005 (ip), vehicle: distilled water + Tween-80 112 % of control

Cc1csc2ccccc12
inactive: [18] 102 % of control | [6] 101 % of control | [19] 119 % of control | [7] 100 % of control | [20] 92 % of control | [8] 100 % of control

CN(C)P1(=S)OCC(C(C)(C)C)CN1C (configuration not stated)
inactive: dose: 100.0 mg/kg/injection, schedule: Q04DX003 (ip), vehicle: saline with Tween-80 102 % of control | dose: 200.0 mg/kg/injection, schedule: Q04DX003 (ip), vehicle: saline with Tween-80 112 % of control

O=C(O)CCC(NC(=O)c1ccc(N(CCCO)CC2CNc3nc(NCCCO)[nH]c(=O)c3N2CCCO)cc1)C(=O)O (configuration not stated)
inactive: dose: 50.0 mg/kg/injection, schedule: Q04DX003 (ip), vehicle: alkali diluted with saline 98 % of control | dose: 100.0 mg/kg/injection, schedule: Q04DX003 (ip), vehicle: alkali diluted with saline 109 % of control | dose: 200.0 mg/kg/injection, schedule: Q04DX003 (ip), vehicle: alkali diluted with saline 98 % of control

COc1ccc(/C=N/N2C(=O)c3ccccc3C2=O)c(OC)c1
inactive: [4] 99 % of control | [5] 98 % of control | [15] 96 % of control

O=S1(c2ccccc2)=NC(Nc2ccccc2)=Nc2ccccc21 (configuration not stated)
inactive: [18] 107 % of control | [19] 101 % of control | [20] 111 % of control

Cc1nnc2n(N)c(=O)c(CC(=O)c3ccc(F)cc3)nn12
inactive: [11] 96 % of control | [12] 88 % of control | [13] 90 % of control

C=C1CC2(C)CCC(OC(=O)C3(C)OC3C)C(C)(OC(C)=O)C2CC1=C(C)C (configuration not stated)
inactive: dose: 150.0 mg/kg/injection, schedule: Q01DX001 (ip), vehicle: Klucel (hydroxypropylcellulose) (HPC) 99 % of control | dose: 300.0 mg/kg/injection, schedule: Q01DX001 (ip), vehicle: Klucel (hydroxypropylcellulose) (HPC) 98 % of control

Cc1ncc([N+](=O)[O-])n1Cc1nnc(N)s1
inactive: [9] 107 % of control | [10] 107 % of control | [14] 108 % of control

— PubChem BioAssay AID330 (DTP/NCI, 2004)
